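48-hour exposure; five concentrations; linearly interpolated endpoints. TGI: total growth inhibition.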
Experiments:
Assay in all cases: NCI tumour cell line growth inhibition, 48 h
[1] = test system: SF-295 CNS
[2] = test system: MDA-MB-231 breast
[3] = test system: CCRF-CEM leukemia
[4] = test system: DU-145 prostate
[5] = test system: HL-60(TB) leukemia
[6] = test system: HCT-15 colon
[7] = test system: ACHN renal
[8] = test system: HOP-62 NSCLC
[9] = test system: LOX IMVI melanoma
[10] = test system: SK-MEL-2 melanoma
[11] = test system: SNB-19 CNS
[12] = test system: KM12 colon
[13] = test system: HCT-116 colon
[14] = test system: CAKI-1 renal
[15] = test system: NCI/ADR-RES ovarian
[16] = test system: UO-31 renal
[17] = test system: NCI-H460 lung
[18] = test system: SF-539 CNS
[19] = test system: IGROV1 ovarian
[20] = test system: HS 578T breast
[21] = test system: COLO 205 colon
[22] = test system: MCF7 breast
[23] = test system: SF-268 CNS
[24] = test system: T-47D breast
[25] = test system: UACC-257 melanoma
[26] = test system: A549 NSCLC
[27] = test system: SK-OV-3 ovarian
[28] = test system: SN12C renal
[29] = test system: K-562 leukemia
[30] = test system: BT-549 breast
[31] = test system: MDA-N
[32] = test system: OVCAR-8 ovarian
[33] = test system: RXF 393 renal
[34] = test system: TK-10 renal
[35] = test system: HOP-92 NSCLC
[36] = test system: M14 melanoma
[37] = test system: SK-MEL-28 melanoma
[38] = test system: RPMI-8226 leukemia
[39] = test system: NCI-H23 lung
[40] = test system: MDA-MB-435
[41] = test system: OVCAR-5 ovarian
[42] = test system: SNB-75 CNS
[43] = test system: 786-0 renal
[44] = test system: EKVX NSCLC
[45] = test system: NCI-H226 lung
[46] = test system: UACC-62 melanoma
[47] = test system: U251 CNS
[48] = test system: OVCAR-3 ovarian
[49] = test system: HT29 colon
[50] = test system: A498 renal
[51] = test system: SW-620 colon
[52] = test system: SR leukemia
[53] = test system: OVCAR-4 ovarian
[54] = test system: PC-3 prostate
[55] = test system: MOLT-4 leukemia
[56] = test system: HCC-2998 colon
[57] = test system: SK-MEL-5 melanoma

Cc1cn(CCCCCCOC(=O)NC(CCCN=C(N)N)C(=O)O)c(=O)[nH]c1=O (stereo not given)
TGI [1]: > 100 µM
TGI [2]: > 100 µM
TGI [3]: > 100 µM
TGI [4]: > 100 µM
TGI [5]: > 100 µM
TGI [6]: > 100 µM
TGI [7]: > 100 µM
TGI [8]: > 100 µM
TGI [9]: > 100 µM
TGI [10]: > 100 µM
TGI [11]: > 100 µM
TGI [12]: > 100 µM
TGI [13]: > 100 µM
TGI [14]: > 100 µM
TGI [15]: > 100 µM
TGI [16]: > 100 µM
TGI [17]: > 100 µM
TGI [18]: > 100 µM
TGI [19]: > 100 µM
TGI [20]: > 100 µM
TGI [21]: > 100 µM
TGI [22]: > 100 µM
TGI [23]: > 100 µM
TGI [24]: > 100 µM
TGI [25]: > 100 µM
TGI [26]: > 100 µM
TGI [27]: > 100 µM
TGI [28]: > 100 µM
TGI [29]: > 100 µM
TGI [30]: > 100 µM
TGI [31]: > 100 µM
TGI [32]: > 100 µM
TGI [33]: > 100 µM
TGI [34]: > 100 µM
TGI [35]: > 100 µM
TGI [36]: > 100 µM
TGI [37]: > 100 µM
TGI [38]: > 100 µM
TGI [39]: > 100 µM
TGI [40]: > 100 µM
TGI [41]: > 100 µM
TGI [42]: > 100 µM
TGI [43]: > 100 µM
TGI [44]: > 100 µM
TGI [45]: > 100 µM
TGI [46]: > 100 µM
TGI [47]: > 100 µM
TGI [48]: > 100 µM
TGI [49]: > 100 µM
TGI [50]: > 100 µM
TGI [51]: > 100 µM
TGI [52]: > 100 µM
TGI [53]: > 100 µM
TGI [54]: > 100 µM
TGI [55]: > 100 µM
TGI [56]: > 100 µM

O=C1/C(=C/c2cccc([N+](=O)[O-])c2)N=C(c2ccccc2)N1c1nc2c(Cl)cc(Cl)cc2s1
TGI [1]: > 100 µM
TGI [2]: > 100 µM
TGI [3]: 23.5 µM
TGI [4]: 70.1 µM
TGI [5]: 60.9 µM
TGI [6]: > 100 µM
TGI [7]: 74.2 µM
TGI [8]: 45 µM
TGI [9]: 32.7 µM
TGI [10]: 48 µM
TGI [11]: 65.4 µM
TGI [12]: 45 µM
TGI [13]: 37.4 µM
TGI [14]: > 100 µM
TGI [15]: 85.4 µM
TGI [16]: 49.6 µM
TGI [17]: > 100 µM
TGI [18]: 48.1 µM
TGI [19]: 58.2 µM
TGI [20]: 73.6 µM
TGI [21]: > 100 µM
TGI [22]: 93.8 µM
TGI [23]: 78.1 µM
TGI [24]: 68.9 µM
TGI [25]: > 100 µM
TGI [26]: 52.2 µM
TGI [27]: 85.7 µM
TGI [28]: 54.7 µM
TGI [29]: > 100 µM
TGI [30]: 94.6 µM
TGI [31]: 39.2 µM
TGI [32]: 49.5 µM
TGI [33]: 55 µM
TGI [34]: > 100 µM
TGI [57]: 33.5 µM
TGI [35]: 77.9 µM
TGI [36]: 46.8 µM
TGI [37]: > 100 µM
TGI [38]: > 100 µM
TGI [40]: 46 µM
TGI [41]: 87.9 µM
TGI [43]: > 100 µM
TGI [44]: 53.3 µM
TGI [46]: > 100 µM
TGI [47]: 37.2 µM
TGI [48]: 39.1 µM
TGI [49]: 40 µM
TGI [50]: 57.8 µM
TGI [51]: 73.1 µM
TGI [52]: 57.9 µM
TGI [53]: 71.8 µM
TGI [54]: 64.4 µM
TGI [55]: 71.8 µM
TGI [56]: 61.9 µM
